# Laboratory results: patent US4650868A, “7-deazapurine derivatives useful as antitumor agents” (Takeda Chemical Industries, Ltd., priority 1984, dated 1987)
# What was measured:
# [1] = system: rat liver tRNA-guanine transglycosylase; experiment: Uptake of the compound into [3H]guanine-labeled tRNA; assay type: biochemical; conditions: 0.02 OD260 of compound, 37° C., 17 hours, [3H]guanine labeled tRNA (8000 cpm)
# Method: [^3 H] guanine labeled tRNA*) (8000 cpm), 70 mM of […], 60 mM of magnesium chloride, 0.5 unit of rat liver tRNA-guanine transglycosylase and 0.02 OD260 of the compound obtained in Example 1 to be described hereinafter were prepared to the total volume of 100 μl, and the reaction was allowed to proceed at 37° C. for 17 hours. The reaction solution was applied to a Whatman 3 MM filter paper (produced by Whatman Co., U.S.A.), which was washed three times with a 5% aqueous solution of trichloroacetic acid and once successively with ethanol/ether (1:1) and ether alone.
# (*) tRNA with the first letter of its anticodon labeled with [^3 H]-guanine.
# L5178Y mouse tumor cells = experiment: Growth inhibition of cultured L5178Y cells; assay type: cell-based; conditions: 72 hours incubation with drug, cell count, non-treated control = 100%, read-out: IC50 (50% growth inhibitory concentration)
# Method: 1×10^4 L5178Y mouse tumor cells were suspended in 2 ml of a RPMI-1640 medium (produced by Nissui Pharmaceutical Co. of Japan) containing 10% of bovine fetal serum, 20 μM of 2-mercaptoethanol and 100 μg/ml of Kanamycin, and incubated at 37° C. for 24 hours before addition of the drug. Using the above culture fluid as a diluent, the compound as obtained in Example 3 to be described hereinafter was diluted 1/4-fold in a series of 5 stages and added to the culture medium in such a manner that the maximum concentration of the compound might be 200 μg/ml. The dilutions were further incubated for 72 hours, at the end of which time the cells were counted with use of a counter and the IC50 (50% growth inhibitory concentration) was calculated with the count for the non-treated control group being taken as 100%. The IC50 value was 2.0 μg/ml.
# Meth A tumor cells = experiment: Meth A tumor subcutaneously transplanted into BALB/c mouse; assay type: in vivo; conditions: 100 mg/kg intraperitoneally once a day for 14 consecutive days from day 4; tumor weight on 35th day after transplantation
# Method: 5×10^4 Meth A tumor cells were subcutaneously transplanted into a BALB/c mouse weighing 20 g, and starting with the fourth day after transplantation, a solution of the compound as obtained in Example 3 to be described hereinafter in 0.1 ml of distilled water prepared in such a way that a dose might be 100 mg/kg was intraperitoneally injected into the mouse once a day for 14 consecutive days. On the 35th day after transplantation, the tumor node was enucleated and its weight (T) was measured.
uptake of the test compound into tRNA [1] [%],IC50 (L5178Y mouse tumor cells) [µg/mL],SMILES,tumor inhibition rate (T/C) (Meth A tumor cells) [%]
120,–,"COc1ccccc1NCc1c[nH]c2nc(N)[nH]c(=O)c12 [Example 1, 2-amino-5-(2-methoxyphenylaminomethyl)pyrrolo[2,3-d]pyrimidin-4-one]",–
140,–,"COc1cc(NCc2c[nH]c3nc(N)[nH]c(=O)c23)cc(OC)c1OC [Example 2 (2), 2-Amino-5-(3,4,5-trimethoxyphenylaminomethyl)pyrrolo[2,3-d]pyrimidin 4-one]",–
–,2,"Nc1ccc(NCc2c[nH]c3nc(N)[nH]c(=O)c23)cc1 [Example 3, 2-amino-5-(4-aminophenylaminomethyl)pyrrolo[2,3-d]pyrimidin-4-one]",36
